The text below walks through data of patent US9480677B2, “Enantiomers of spiro-oxindole compounds and their uses as therapeutic agents” (Xenon Pharmaceuticals Inc., priority 2009, dated 2016).

For data set [1], the target named is T1, hNav1.7 (Homo sapiens, UniProt Q15858). In words: Electrophysiological assay, whole cell voltage clamp. In kind it is cell-based. Further details: expressed in transfected cells; host or cells: HEK293. As to conditions: for Ki: affinity for the inactivated state of hNav1.7; for Kd: affinity for the rested/closed state of hNav1.7, holding potential −120 mV, read-out: Kr. The method, then:
HEK293 Cells expressing hNav1.7 were cultured in DMEM growth media (Gibco) with 0.5 mg/mL G418, +/−1% PSG, and 10% heat-inactivated fetal bovine serum at 37° C. and 5% CO2. For electrophysiological recordings, cells were plated on 10 mm dishes.
Whole cell recordings were examined by established methods of whole cell voltage clamp (Bean et al., op. cit.) using an Axopatch 200B amplifier and Clampex software (Axon Instruments, Union City, Calif.). All experiments were performed at ambient temperature. Electrodes were fire-polished to resistances of 2-4 Mohms Voltage errors and capacitance artifacts were minimized by series resistance compensation and capacitance compensation, respectively. Data were acquired at 40 kHz and filtered at 5 kHz. The external (bath) solution consisted of: NaCl (140 mM), KCl (5 mM), CaCl2 (2 mM), MgCl2 (1 mM), HEPES (10 mM) at pH 7.4. The internal (pipette) solution consisted of (in mM): NaCl (5), CaCl2 (0.1), MgCl2 (2), CsCl (10), CsF (120), HEPES (10), EGTA (10), at pH 7.2.
To estimate the steady-state affinity of compounds for the resting and inactivated state of the channel (Kr and Ki, respectively), 12.5 ms test pulses to depolarizing voltages from −60 to +90 m V from a holding potential of −120 m V was used to construct current-voltage relationships (1-V curves). A voltage near the peak of the IV-curve (−30 to 0 m V) was used as the test pulse throughout the remainder of the experiment. Steady-state inactivation (availability) curves were then constructed by measuring the current activated during a 8.75 ms test pulse following 1 second conditioning pulses to potentials ranging from −120 to −10 mV.
The steady-state voltage-dependence of binding of a compound to a voltage-gated sodium channel was determined by measuring the blockage of the ionic current at two holding potentials. Binding to rested-state channels was determined by using a holding potential of −120 mV, so that maximal availability was achieved. Binding to inactivated-state channels was evaluated at a holding potential such that only about 10% of the channels were available to open. The membrane potential was held at this voltage for at least 10 seconds so that drug binding could equilibrate.
The apparent dissociation constant at each voltage was calculated with the equation:
[formula] where Kd is the dissociation constant (either Kr or Ki), and [Drug] is the concentration of the test compound.

Data set [2] addresses T1, hNav1.7. In words: cell-based.
Data set [3] can be described thus: Plasma concentration after oral dosing in the CFA model. In kind it is in vivo, rats. The method, then:
Each enantiomer was dosed at 10, 30, 100 or 200 mg/Kg. The plasma concentration achieved with each dose was also determined and the reversal of pain response (as the % increase from baseline threshold) is plotted as a function of plasma concentration.

Data set [4] has as its system chronic constriction injury neuropathic pain. Nature of the data set: Neuropathic pain model; chronic constriction injury (CCI). In kind it is in vivo. As to conditions: topical ointment containing 2% (w/v).
The next data set has as its system Nav1.8 (SK-N-BE2C). In kind it is cell-based, human.
A further data set deals with Nav1.2 and Nav1.7 (PC12). Format: cell-based, rat.
Data set [5] relates to Nav1.9 and Nav1.7 (SH-SY5Y). Format: cell-based, Human.
The target of another data set is Nav1.4 (CHO-K1) (Cricetulus griseus, UniProt A0A9J7H6F9). Format: cell-based, Chinese Hamster.
Chain of Nav1.4 (CHO-K1) (A0A9J7H6F9 1-1930): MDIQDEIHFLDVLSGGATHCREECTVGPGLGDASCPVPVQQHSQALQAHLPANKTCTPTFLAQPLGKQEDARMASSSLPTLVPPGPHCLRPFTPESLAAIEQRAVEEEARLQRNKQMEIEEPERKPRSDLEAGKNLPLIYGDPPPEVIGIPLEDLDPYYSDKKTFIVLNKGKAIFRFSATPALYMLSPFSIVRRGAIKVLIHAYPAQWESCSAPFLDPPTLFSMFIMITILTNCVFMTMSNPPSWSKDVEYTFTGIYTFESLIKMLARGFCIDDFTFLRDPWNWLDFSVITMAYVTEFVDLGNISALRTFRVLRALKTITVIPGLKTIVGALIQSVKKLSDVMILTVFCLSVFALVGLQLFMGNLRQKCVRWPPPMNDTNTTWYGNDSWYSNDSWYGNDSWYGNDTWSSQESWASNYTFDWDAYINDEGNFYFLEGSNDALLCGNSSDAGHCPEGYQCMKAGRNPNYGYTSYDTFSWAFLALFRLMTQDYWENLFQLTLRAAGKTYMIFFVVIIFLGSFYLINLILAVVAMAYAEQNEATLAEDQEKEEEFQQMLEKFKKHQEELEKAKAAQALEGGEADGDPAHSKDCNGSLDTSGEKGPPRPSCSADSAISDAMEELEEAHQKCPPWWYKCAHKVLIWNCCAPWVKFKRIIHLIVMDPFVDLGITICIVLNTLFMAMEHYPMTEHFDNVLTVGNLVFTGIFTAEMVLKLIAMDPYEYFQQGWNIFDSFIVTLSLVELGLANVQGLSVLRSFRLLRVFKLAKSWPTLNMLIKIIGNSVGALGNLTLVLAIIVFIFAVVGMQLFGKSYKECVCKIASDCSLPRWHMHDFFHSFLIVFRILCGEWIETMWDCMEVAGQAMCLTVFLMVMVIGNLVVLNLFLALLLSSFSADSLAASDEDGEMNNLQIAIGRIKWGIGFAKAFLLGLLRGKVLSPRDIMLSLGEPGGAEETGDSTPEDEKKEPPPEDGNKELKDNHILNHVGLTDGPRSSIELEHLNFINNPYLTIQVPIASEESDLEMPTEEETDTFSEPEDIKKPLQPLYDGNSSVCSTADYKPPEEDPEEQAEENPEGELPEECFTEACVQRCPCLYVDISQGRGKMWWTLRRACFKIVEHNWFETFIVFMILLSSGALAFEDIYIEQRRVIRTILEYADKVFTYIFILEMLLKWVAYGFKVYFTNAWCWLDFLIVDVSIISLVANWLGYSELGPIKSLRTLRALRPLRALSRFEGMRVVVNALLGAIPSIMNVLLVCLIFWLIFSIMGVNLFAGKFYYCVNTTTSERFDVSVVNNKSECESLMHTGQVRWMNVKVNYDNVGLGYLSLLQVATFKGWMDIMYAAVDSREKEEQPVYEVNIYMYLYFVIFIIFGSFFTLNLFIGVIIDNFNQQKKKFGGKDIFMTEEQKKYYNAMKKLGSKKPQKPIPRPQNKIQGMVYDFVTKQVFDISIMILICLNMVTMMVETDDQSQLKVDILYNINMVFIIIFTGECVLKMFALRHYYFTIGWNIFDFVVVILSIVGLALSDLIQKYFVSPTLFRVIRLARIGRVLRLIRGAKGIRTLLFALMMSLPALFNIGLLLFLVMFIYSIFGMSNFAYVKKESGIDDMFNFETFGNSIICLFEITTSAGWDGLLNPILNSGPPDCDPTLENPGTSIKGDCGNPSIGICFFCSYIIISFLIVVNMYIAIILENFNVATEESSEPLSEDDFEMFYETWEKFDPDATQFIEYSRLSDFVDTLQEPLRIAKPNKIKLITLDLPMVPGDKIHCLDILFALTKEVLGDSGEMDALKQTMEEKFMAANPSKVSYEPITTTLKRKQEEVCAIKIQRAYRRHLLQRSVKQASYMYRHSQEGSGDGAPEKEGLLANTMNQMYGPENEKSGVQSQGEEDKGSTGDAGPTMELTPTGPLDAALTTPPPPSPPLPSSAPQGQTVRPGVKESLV
The next data set deals with Nav1.4 and 1.5 (L6). In kind it is cell-based, rat.

T1 sequence (Q15858 whole entry): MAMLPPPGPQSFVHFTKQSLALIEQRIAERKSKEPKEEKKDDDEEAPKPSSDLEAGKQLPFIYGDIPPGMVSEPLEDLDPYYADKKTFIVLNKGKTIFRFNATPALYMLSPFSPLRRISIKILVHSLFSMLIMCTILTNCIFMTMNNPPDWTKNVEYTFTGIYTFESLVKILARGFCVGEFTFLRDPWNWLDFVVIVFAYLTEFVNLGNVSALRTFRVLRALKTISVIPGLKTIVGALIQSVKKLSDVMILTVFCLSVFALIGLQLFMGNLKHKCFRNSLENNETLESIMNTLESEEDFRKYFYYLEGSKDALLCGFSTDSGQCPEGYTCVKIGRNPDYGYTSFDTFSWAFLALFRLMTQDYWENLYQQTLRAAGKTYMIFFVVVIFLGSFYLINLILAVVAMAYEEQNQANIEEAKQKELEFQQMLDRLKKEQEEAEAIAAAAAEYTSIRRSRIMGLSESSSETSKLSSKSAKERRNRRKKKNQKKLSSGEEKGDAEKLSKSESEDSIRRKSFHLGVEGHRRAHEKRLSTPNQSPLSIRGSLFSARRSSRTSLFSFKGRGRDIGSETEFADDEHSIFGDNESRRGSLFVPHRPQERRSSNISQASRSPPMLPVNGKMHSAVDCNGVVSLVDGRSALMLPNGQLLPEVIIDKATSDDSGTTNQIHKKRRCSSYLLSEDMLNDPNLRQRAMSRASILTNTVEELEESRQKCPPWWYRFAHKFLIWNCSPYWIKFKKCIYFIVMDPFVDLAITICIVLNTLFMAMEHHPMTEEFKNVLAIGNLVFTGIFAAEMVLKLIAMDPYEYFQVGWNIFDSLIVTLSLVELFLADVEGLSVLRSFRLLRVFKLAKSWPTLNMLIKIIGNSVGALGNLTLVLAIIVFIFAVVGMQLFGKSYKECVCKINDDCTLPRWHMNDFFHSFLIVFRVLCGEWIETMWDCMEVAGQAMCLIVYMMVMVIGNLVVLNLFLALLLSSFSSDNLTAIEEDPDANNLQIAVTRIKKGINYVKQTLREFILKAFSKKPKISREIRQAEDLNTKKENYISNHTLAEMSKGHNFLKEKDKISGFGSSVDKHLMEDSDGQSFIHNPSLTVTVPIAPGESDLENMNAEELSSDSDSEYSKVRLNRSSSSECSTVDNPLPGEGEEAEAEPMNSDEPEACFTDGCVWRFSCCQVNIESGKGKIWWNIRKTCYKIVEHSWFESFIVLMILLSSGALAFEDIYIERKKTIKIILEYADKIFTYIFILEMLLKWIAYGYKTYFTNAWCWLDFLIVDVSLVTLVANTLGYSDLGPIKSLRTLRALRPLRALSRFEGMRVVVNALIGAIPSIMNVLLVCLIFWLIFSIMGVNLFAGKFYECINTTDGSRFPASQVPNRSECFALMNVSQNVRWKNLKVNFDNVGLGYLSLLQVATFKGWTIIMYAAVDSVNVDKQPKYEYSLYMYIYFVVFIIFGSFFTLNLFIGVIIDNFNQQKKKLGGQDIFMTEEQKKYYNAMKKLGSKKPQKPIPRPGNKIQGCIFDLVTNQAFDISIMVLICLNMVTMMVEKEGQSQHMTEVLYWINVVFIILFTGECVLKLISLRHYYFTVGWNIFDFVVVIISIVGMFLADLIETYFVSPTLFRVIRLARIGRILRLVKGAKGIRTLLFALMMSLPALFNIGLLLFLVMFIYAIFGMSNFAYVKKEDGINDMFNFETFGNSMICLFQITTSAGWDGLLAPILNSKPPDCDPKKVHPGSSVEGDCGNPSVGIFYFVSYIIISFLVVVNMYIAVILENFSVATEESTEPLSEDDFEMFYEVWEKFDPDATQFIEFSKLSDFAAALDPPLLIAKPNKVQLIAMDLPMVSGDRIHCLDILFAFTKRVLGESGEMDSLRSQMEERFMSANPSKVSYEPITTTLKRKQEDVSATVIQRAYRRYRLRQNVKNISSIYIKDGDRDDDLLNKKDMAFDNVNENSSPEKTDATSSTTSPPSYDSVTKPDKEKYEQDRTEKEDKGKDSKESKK

For `O=C1N(Cc2ccc(C(F)(F)F)o2)c2ccccc2C12COc1cc3c(cc12)OCO3` (racemic) [(I), 1′-{[5-(trifluoromethyl)furan-2-yl]methyl}spiro[furo[2,3-f][1,3]benzodioxole-7,3′-indol]-2′(1′H)-one], on hNav1.7 [1], the Ki was 0.142 µM and the Kd was over 10 µM. The compound further came in with an IC50 on hNav1.7 [2] of 0.007 µM.
For `O=C1N(Cc2ccc(C(F)(F)F)o2)c2ccccc2[C@@]12COc1cc3c(cc12)OCO3` [(I-R), (R)-1′-{[5-(trifluoromethyl)furan-2-yl]methyl}spiro[furo[2,3-f][1,3]benzodioxole-7,3′-indol]-2′(1H)-one], at hNav1.7 [1], the Ki came out at 0.869 µM and the Kd was over 10 µM. The “excess of the inactive (R)-enantiomer resulting from use of the racemate” value in [3] (oral dosing) is about 10 fold. Further, in data set [3] (oral dosing 10, 30, 100 or 200 mg/Kg, compared with the (S)-enantiomer), the “plasma concentration at an equivalent dose level” value is on record as “much higher plasma concentration”. Also, the “reversal of pain responses, percent increase from baseline” value in [4] is listed as “no significant increase from baseline”. Moreover, the IC50 against hNav1.7 [2] amounted to 4.2 µM.
As for `NC1=N[C@H](O)[C@H]2[C@H]3O[C@]4(O)O[C@@H]([C@@H](O)[C@@]2(N1)[C@@H]4O)[C@]3(O)CO` [TTX, tetrodotoxin], the “block of [14C] guanidine influx by TTX” value in the data set on Nav1.8 (SK-N-BE2C) is “TTX partially blocked influx”; in the data set with Nav1.2 and Nav1.7 (PC12) it was “guanidine influx was completely”; in data set [5] it was “background was partially blocked”; at Nav1.4 (CHO-K1) it was “completely blocked using TTX”; with Nav1.4 and 1.5 (L6), “partially blocked by TTX at 100 nM”.
